From patent US20090275648A1, “MACROCYCLIC GHRELIN RECEPTOR ANTAGONISTS AND INVERSE AGONISTS AND METHODS OF USING THE SAME” (priority 2005, published 2009)

Assays:
[1] = biological target: T1, HEK293 cells expressing GHS-R1a receptor (Homo sapiens, UniProt Q92847); experiment: Fluorescence functional assay (ghrelin receptor), Example 2; format: cell-based; details: assay of Example 2 (fluorescence, calcium)
T1 construct: host or cells: HEK293 cells (grown under geneticin selection)
Protocol: The compounds of the present invention were evaluated for their ability to interact at the human ghrelin receptor utilizing a competitive radioligand binding assay, fluorescence assay or Aequorin functional assay as described in the examples below. Such methods can be conducted, if so desired, in a high throughput manner to permit the simultaneous evaluation of many compounds.
• 1. Hanks' BSS without phenol red (Life Technologies) • 2. Hepes buffer • 3. Probenecid (Sigma) • 4. FLIPR Calcium-3 Assay Kit (Molecular Devices #R-8091) • 5. Falcon cell culture 96-well black/clear bottom plates • 6. 0.05% trypsin-EDTA • 7. […]
The plates were removed from the incubator and the media removed by inversion of the plates. […] For agonist testing, after reading for ten (10) sec, 25 μL of 2× test compound or control was injected into the assay plate. Fluorescence was monitored for an additional 50 sec. A reading was taken every two (2) seconds for a total of 30 readings per assay point.
For antagonist testing, after reading for ten (10) sec, 12.5 μL of 3× test compound or control was injected into the assay plate and allowed to react for three (3) min. At that time, 4 nM ghrelin (corresponds to EC80) was injected and fluorescence was monitored for an additional 60 sec. A reading was taken every two (2) seconds for a total of 125 readings per data point. […]

ghrelin receptor = ghrelin receptor (Homo sapiens, UniProt Q92847); experiment: Inverse agonist assay, Example 4; format: cell-based; details: inverse agonist activity
Excerpt: The inverse agonist activity at the ghrelin receptor for compounds of the invention can be determined using the methods described in Intl. Pat. Appl. Publ. No. WO 2004/056869 and Holst, B.; Cygankiewicz, A.; Halkjaer, T.; Ankersen, A.; Schwartz, T. W. High constitutive signaling of the ghrelin receptor—identification of a potent inverse agonist. Mol. Endocrinol. 2003, 17, 2201-2210.

T1 sequence (Q92847 whole entry): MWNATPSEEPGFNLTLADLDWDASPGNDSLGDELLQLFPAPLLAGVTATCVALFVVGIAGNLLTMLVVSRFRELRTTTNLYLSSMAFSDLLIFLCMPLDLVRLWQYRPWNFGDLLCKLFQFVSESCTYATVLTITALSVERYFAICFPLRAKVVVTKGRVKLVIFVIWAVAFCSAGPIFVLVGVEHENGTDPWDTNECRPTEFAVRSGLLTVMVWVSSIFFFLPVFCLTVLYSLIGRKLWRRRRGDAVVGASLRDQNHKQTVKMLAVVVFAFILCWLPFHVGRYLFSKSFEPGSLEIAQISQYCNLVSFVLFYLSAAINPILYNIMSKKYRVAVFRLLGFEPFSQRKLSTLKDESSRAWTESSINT
Sequence of ghrelin receptor (Q92847 whole entry): as above

Ki [1]: 0.1 to 1 µM
IC50 (ghrelin receptor): 0.001 to 0.1 µM
SMILES: CCC(C)[C@@H]1NCCOc2ccccc2/C=C/CNC(=O)[C@@H](Cc2ccccc2)NC(=O)[C@H](C(C)O)N(C)C1=O (some centres unmarked) [Compound 502]
